Legend:
THP-1 = test: cells; details: Homo sapiens
HepG2 [1] = test: Agonist activity at LXR in human HepG2 cells assessed as lipid accumulation relative to T0901317
HepG2 [2] = test: cells; details: Homo sapiens, HepG2, 3 h
[3] = target: T1, Oxysterols receptor LXR-alpha (Homo sapiens, UniProt Q13133); test: Displacement of [3H]T0901317 from human LXRalpha ligand binding domain
T1 sequence (Q13133 whole entry): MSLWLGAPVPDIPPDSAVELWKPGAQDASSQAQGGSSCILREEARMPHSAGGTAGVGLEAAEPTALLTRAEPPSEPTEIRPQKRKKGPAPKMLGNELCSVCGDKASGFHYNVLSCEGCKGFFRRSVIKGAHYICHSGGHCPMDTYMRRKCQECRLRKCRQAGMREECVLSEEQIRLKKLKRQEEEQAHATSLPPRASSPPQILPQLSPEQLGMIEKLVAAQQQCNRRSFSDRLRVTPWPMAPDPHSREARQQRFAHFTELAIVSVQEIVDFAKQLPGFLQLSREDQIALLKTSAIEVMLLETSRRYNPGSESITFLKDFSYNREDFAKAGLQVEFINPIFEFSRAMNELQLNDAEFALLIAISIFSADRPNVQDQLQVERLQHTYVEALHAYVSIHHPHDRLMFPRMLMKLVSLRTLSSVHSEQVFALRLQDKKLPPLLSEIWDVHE

[4] = target: T2, Oxysterols receptor LXR-alpha (Homo sapiens, UniProt Q13133)
[5] = target: T3, Oxysterols receptor LXR-beta (Homo sapiens, UniProt P55055); test: Displacement of [3H]T0901317 from human LXRbeta ligand binding domain
[6] = target: T2, Oxysterols receptor LXR-alpha; remark: listed apart in the source
[7] = target: T3, Oxysterols receptor LXR-beta
[8] = target: T3, Oxysterols receptor LXR-beta; remark: listed apart in the source

T3 sequence (P55055 whole entry, the tested form may be a part): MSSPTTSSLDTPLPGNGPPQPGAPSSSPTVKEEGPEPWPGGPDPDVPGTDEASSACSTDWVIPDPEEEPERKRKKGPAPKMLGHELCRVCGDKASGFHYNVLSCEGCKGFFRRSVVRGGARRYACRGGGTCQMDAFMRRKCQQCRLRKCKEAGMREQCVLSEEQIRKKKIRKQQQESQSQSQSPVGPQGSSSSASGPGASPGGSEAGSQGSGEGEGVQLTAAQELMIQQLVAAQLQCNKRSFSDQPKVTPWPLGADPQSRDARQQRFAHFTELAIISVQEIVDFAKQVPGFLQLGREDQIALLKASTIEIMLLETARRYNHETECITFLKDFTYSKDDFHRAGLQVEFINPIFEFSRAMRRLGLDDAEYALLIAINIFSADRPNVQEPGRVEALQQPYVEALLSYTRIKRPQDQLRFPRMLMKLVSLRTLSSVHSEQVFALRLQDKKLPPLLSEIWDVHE

EC50 (THP-1) [nM]	IC50 [3] [nM]	SMILES	Efficacy (HepG2 [1]) [%]	other results
1470		CNS(=O)(=O)c1cccc(-c2ccc(-c3nc4cccc(C(F)(F)F)c4nc3C)cc2)c1	6	
900		CCc1nc2c(C(F)(F)F)cccc2nc1-c1ccc(-c2cccc(S(C)(=O)=O)c2)cc1	32	EC50 (HepG2 [2]): 350 nM
	> 1000	CCS(=O)(=O)c1cccc(-c2ccc(-c3nc4cccc(C(F)(F)F)c4nc3C)cc2)c1		
	> 1000	Cc1nc2c(C(F)(F)F)cccc2nc1-c1cccc(-c2ccc(S(C)(=O)=O)cc2)c1		
	> 1000	Cc1nc2c(C(F)(F)F)cccc2nc1-c1cccc(-c2cccc(S(C)(=O)=O)c2)c1		

The remaining lines, values behind:

SMILES	EC50 (THP-1) [nM]	IC50 [3] [nM]	Efficacy (HepG2 [1]) [%]	other results
Cc1nc2c(C(F)(F)F)cccc2nc1-c1ccc(-c2ccccc2S(C)(=O)=O)cc1		> 1000		
CS(=O)(=O)c1cccc(-c2ccc(-c3cnc4c(C(F)(F)F)cccc4n3)cc2)c1		> 1000		
Cc1nc2c(C(F)(F)F)cccc2nc1-c1ccc(-c2ccc(S(C)(=O)=O)cc2)cc1		> 1000		
Cc1nc2c(Cl)cccc2nc1-c1ccc(-c2cccc(S(C)(=O)=O)c2)cc1	290		18	EC50 (HepG2 [2]): 380 nM
CNC(=O)c1cccc(-c2ccc(-c3nc4cccc(C(F)(F)F)c4nc3C)cc2)c1		> 1000		
CS(=O)(=O)c1cc(Cl)cc(Oc2cccc(-c3c(C(N)=O)cnc4c(C(F)(F)F)cccc34)c2)c1	1890		74	EC50 [4]: 5.1 µM; IC50 [5]: 61 nM; EC50 [6]: 10.9 µM; EC50 (HepG2 [2]): 3180 nM; EC50 [7]: 460 nM; EC50 [8]: 1700 nM

Source: ChEMBL document CHEMBL1156230, “Identification of phenylsulfone-substituted quinoxaline (WYE-672) as a tissue selective liver X-receptor (LXR) agonist” (J Med Chem, 2010)
